Test results as given in patent publication US4542153A, “Methods for changing calcium metabolism within the cells of a mammal” (The Ohio State University Research Foundation, priority 1983, dated 1985).
Like-named read-outs stand apart in the source and are kept apart here.

Columns and labels:
[1] = system: thoracic aorta strips contracted with norepinephrine; test: Vasodilator activity: norepinephrine-contracted aortic strips; format: cell-based, male Sprague-Dawley rats; settings: for IC50: read-out: IC50 (mean and range of SEM) Norepinephrine; for comparative vasodilator activity, norepinephrine-treated tissue: norepinephrine-treated aortic tissue; for relaxation of the aortic tissue: norepinephrine- or KCl-treated tissue
Excerpt: (§1) Pr-MDI, bu-MDI, Q-bu-MDI and the compounds of Formulae IIIA, IIIB and IVA having the two R1 groups together forming a methylene group, each R3 a methyl group and R2 an n-propyl group or n-butyl group (the compounds of Formula III are hereinafter abbreviated as sat-pr-MDI and sat-bu-MDI respectively, reference being made where necessary to the cis isomer of Formula III A or the trans isomer of Formula III B while the compounds of Formula IV are similarly referred to as cis sat-Q-pr-MDI and cis sat-Q-bu-MDI) were tested for vasodilator activity by the method of R. F. Furchgott and S. Bhadrakom, J. P. Pharmacol. Ex. Ther., 108, 129-143 (1953).
(§2) The vasodilator activity tests were conducted on male Sprague-Dawley rats, obtained from Harlan Industries, Inc., Cumberland, Indiana. The rats, weight 250-300 g., were sacrified by cervical dislocation and a 2.5 cm. segment of the thoracic aorta was removed and rinshed in physiological buffer. Each aortic segment was cleaned of connective tissue and cut spirally two yield to strips, each 3 by 15 mm. Each strip was mounted isometrically under a tension of 1 g in a 10 ml. tissue bath thermostatically maintained at 37° C. and containing a normal physiological solution aerated with a 95% oxygen/5% carbon dioxide mixture. Forces generated by the strip were monitored using a Grass FT03 isometric transducer coupled to a Grass module 7D polygraph recorder, both the transducer and the recorder being obtained from Grass Instrument Co., of Quincy, Mass.
(§3) After the aortic tissue had been allowed to equilibriate for 1-1.5 hours in the normal physiologic solution, tissue contraction was induced by introducing either 10^-7 M norepinephrine or 40mM potassium chloride buffer to the tissue bath.
(§4) To avoid interference by loss of tension due to time dependent tissue fatigue, separate preliminary experiments were performed to determine the degree of tissue relaxation due to such fatigue and the value of the control tension generated by norepinephrine or potassium chloride prior to the addition of the test compounds was adjusted whenever the duration of the experiment was such that fatigue could be expected to cause more than a 6% loss of tension. […] All concentrations mentioned hereinafter represent the final concentration of the test compound after dilution in the tissue bath.
(§5) The figures of concentration against percent response data obtained from each aortic tissue were transformed to its appropriate probit value and IC50 values were then estimated using linear regression analysis. The normal physiological solution contained 6.9 g/l of sodium chloride, 0.35 g/l of potassium chloride, 0.11 g/l of magnesium chloride hexahydrate, 0.138 g/l of sodium dihydrogen phosphate, 2.1 g/l of sodium bicarbonate, 0.01 g/l of EDTA, 0.368 g/l of calcium chloride dihydrate and 2.0 g/l of dextrose. The high potassium buffers were obtained by substituting potassium chloride for sodium chloride on an equimolar basis to maintain tonicity.

[2] = system: thoracic aorta strips contracted with potassium chloride; test: Vasodilator activity: potassium chloride-contracted aortic strips; format: cell-based, male Sprague-Dawley rats; settings: for IC50: read-out: IC50 (mean and range of SEM) KCl; for comparative vasodilator activity, potassium chloride-treated tissue: KCl-treated aortic tissue
Excerpt: as §1, §2, §3, §4, §5

[3] = system: calcium-induced arrhythmias in rats; test: Calcium-induced arrhythmias (CaCl2 injected i.v. into anesthetized rats)
Excerpt: The experimental method used was that described in Lynch J. J., Rahwan R. G., Witiak D. T.: Effects of 2-substituted-3-dimethylamino-5,6-methylenedioxyindenes on calcium-inducedarrhythmias, J. Cardiovasc. Pharmacol. 3: 49-60 (1981). Male Sprague-Dawley rats weighing 180-250 grams were anesthetized with sodium pentobarbital and a cannula was inserted into the left jugular vein for drug administration. Electrocardiograph equipment was connected to the rat and the lead II was continuously monitored. The compound under test, dissolved in 5% dextrose solution, was administered into the jugular vein of anesthetized rats over a 40 second period. Ten minutes after this treatment, an acute dose of 1 ml/kg of a 10% CaCl2.2H2 O solution was injected into the jugular vein over a period of 10 seconds. The arrhythmias resulting from the calcium administration were graded according to the following criteria: (a) initial change in heart rate following calcium administration; (b) incidences of sinoatrial block, atrioventricular block, ectopic beats, and ventricular flutter and fibrillation; (c) time required for reversion to control ECG; and (d) incidence of mortality.

[4] = system: chloroform anoxia arrhythmia in mice; test: Chloroform Anoxia Assay (chloroform-induced ventricular fibrillation); format: in vivo, Female Swiss albino mice; settings: for ED50: i.p., 10 min before chloroform, table: mean values and 95% confidence limits
Protocol: The same four compounds were tested for their ability to protect mice from chloroform anoxia by the classical chloroform inhalation procedure described in Lawson J. W.: Antiarrhythmic activity of some isoquinoline derivatives determined by a rapid screening procedure in the mouse, J. Pharmacol. Exp. Ther. 160: 22-31, (1968). In this method, chloroform inhalation leading to respiratory arrest produces ventricular fibrillation. Female Swiss albino mice procured from Laboratory Supply Company, Indianapolis, Indiana, weighing 16-22 g, were pretreated intraperitoneally with the compound under test dissolved in a 5% dextrose solution 10 minutes before exposure to chloroform in a closed container containing chloroform-saturated cotton. The mice were removed from the chloroform atmosphere immediately after respiratory arrest and the electrocardiograph lead II monitored. The ED 50 and 95% confidence limits calculated for the anti-arrhythmic agents by the standard method of Litchfield and Wilcoxon.

[5] = tested acutely and subchronically; earlier published work; cited from earlier work
isolated left atria = test: Effects on isolated guinea pig atria: electrically driven left atria; format: cell-based
Excerpt: The effects of pr-MDI, bu-MDI and Q-bu-MDI on the mechanical and electrical behavior of isolated guinea pig atria were investigated by the method of H. Nawrath, J. Pharmacol. Exp. Ther., 16, 176-182 (1980). The compounds were investigated over the concentration range of 10^-8 to 3×10^-4 M.
English short-haired guinea pigs, supplied by Carr Animal Supply, of Powell, Ohio, weighing 300-600 g. were killed by a blow on the head and both atria of the animal were quickly dissected out and suspended in a water-jacketed organ bath containing Krebs-Henseleit solution through which a 95% oxygen/5% carbon dioxide mixture was bubbled at 32° C. The solution contained 6.92 g/l of sodium chloride, 0.35 g/l of potassium chloride, 0.29 g/l of magnesium […] heptahydrate, 0.3 g/l of calcium chloride dihydrate, 0.16 g/l of potassium dihydrogen phosphate, 2.1 g/l of sodium bicarbonate and 2.1 g/l of dextrose. The contractile force generated by the isolated artria was recorded isometrically under a 500 mg. preload using a Narco Biosystems force transducer connected to a physiograph DMP-4B recorder, both the transducer and the recorder being obtained from E & M Instrument Co. of Houston, Texas.
The isolated left atria were electrically driven by square wave impulses of 3 milliseconds duration at a frequency of 3 Hz. and a voltage of twice the threshold voltage, delivered by a Grass S9 stimulator obtained from Grass Instrument Co., of Quincy, Massachusetts. Two platinum electrodes were used for the stimulation, the anode being in direct contact with the atrial tissue while the cathode had the form of a ring suspended 2.5 centimeters above the anode. Before redetermination of the threshold voltage and generation of a predrug (control) frequency-force profile over the range of 1-5 Hz., an equilibriation time of one hour was allowed. The system was then re-equilibriated at 3 Hz. and twice the threshold voltage as before, then one cumulative dose-response curve of contractile force for one test compound was obtained, followed immediately by redetermination of the threshold voltage and the generation of a post-drug frequency-force profile.
A paired Student's t-test was used to compare predrug and postdrug threshold voltages for each left atrial preparations as well as to compare developed tension at each frequency in the profile of each left atrial preparation. P values of less than 0.05 were considered statistically significant.

mice = test: Toxicity Tests (intraperitoneal LD50); format: in vivo; settings: i.p., table: mean values and 95% confidence limits
[6] = rat aorta contracted with 40 mM potassium chloride
[7] = rat aorta contracted with 10^-7 M norepinephrine

NC[C@H](O)c1ccc(O)c(O)c1 [norepinephrine, reference compound]
control tension as percent of the maximum inducible contraction ([1]; 10^-7 M norepinephrine): 85.1% | control tension generated ([1]; 10^-7 M norepinephrine, rat aortic strip): 0.98 ± 0.03 g

[Cl-].[K+] [potassium chloride, reference compound]
control tension as percent of the maximum inducible contraction ([2]; 40 mM potassium chloride): 84.2% | control tension generated ([2]; 40 mM potassium chloride, rat aortic strip): 0.89 ± 0.05 g

CCCC[C@@H]1Cc2cc3c(cc2[C@@H]1[N+](C)(C)C)OCO3 (relative stereo) [cis sat-Q-bu-MDI]
IC50 [2, 6]: 175 µM | IC50 [1, 7]: 281 µM

C=C[C@H]1C[N@@]2CC[C@H]1C[C@@H]2[C@@H](O)c1ccnc2ccc(OC)cc12 [quinidine, reference compound]
effect on the S wave ([3]; 8 mg/kg (minimum effective concentration)): severely deepened the S wave | ED50 ([4]; Mus musculus, ip, 10 min, n = 40, read-out: ED50): 67 mg/kg

CCC[C@H]1Cc2cc3c(cc2[C@@H]1N(C)C)OCO3 (relative stereo) [trans sat-pr-MDI, 2-propyl-5,6-methylenedioxyindane-1-dimethylammonium chloride]
IC50 ([2]; Rattus norvegicus): 98.9 µM | IC50 ([1]; Rattus norvegicus): 383 µM

CCCC[C@@H]1Cc2cc3c(cc2[C@@H]1N(C)C)OCO3 (relative stereo) [cis sat-bu-MDI, 2-butyl-5,6-methylenedioxyindane-1-dimethylammonium chloride]
comparative vasodilator activity, potassium chloride-treated tissue [2]: substantially the same activity | IC50 ([2]; Rattus norvegicus): 17.4 µM | IC50 ([1]; Rattus norvegicus): 37.9 µM | comparative vasodilator activity, norepinephrine-treated tissue [1]: greater activity on norepinephrine treated tissue than the corresponding butyl compound of Formula I

CCC[C@@H]1Cc2cc3c(cc2[C@@H]1N(C)C)OCO3 (relative stereo) [cis sat-pr-MDI, 2-propyl-5,6-methylenedioxyindane-1-dimethylammonium chloride]
comparative vasodilator activity, potassium chloride-treated tissue [2]: slightly lower activity | IC50 ([2]; Rattus norvegicus): 30 µM | IC50 ([1]; Rattus norvegicus): 59.4 µM | comparative vasodilator activity, norepinephrine-treated tissue [1]: substantially the same activity as the corresponding unsaturated propyl compound of Formula I

CCCC1=Cc2cc3c(cc2C1[N+](C)(C)C)OCO3.[I-] (stereo not drawn) [Q-pr-MDI, 2-propyl-5,6-methylenedioxyindene-1-trimethylammonium iodide]
IC50 [2, 6]: 547 µM | relaxation of the aortic tissue [1]: relaxed the aortic tissue | comparative vasodilator activity, norepinephrine-treated tissue [1]: less active in vitro than their tertiary analogs | IC50 [1, 7]: 382 µM

CCC[C@@H]1Cc2cc3c(cc2[C@@H]1[N+](C)(C)C)OCO3 (relative stereo) [cis sat-Q-pr-MDI, cis-2-propyl-5,6-methylenedioxyindane-1-trimethylammonium iodide]
IC50 [2, 6]: 871 µM | IC50 [1, 7]: 1020 µM

CCCC[C@H]1Cc2cc3c(cc2[C@@H]1N(C)C)OCO3 (relative stereo) [trans sat-bu-MDI]
IC50 ([2]; Rattus norvegicus): 31.1 µM | IC50 ([1]; Rattus norvegicus): 151 to 173 µM

CCCC1=Cc2cc3c(cc2C1N(C)C)OCO3.Cl (stereo not drawn) [pr-MDI, 2-propyl-5,6-methylenedioxyindene-1-dimethylammonium chloride, reference compound]
toxicity [5]: remarkable lack of toxicity | IC50 [2, 6]: 21.4 µM | relaxation of the aortic tissue [1]: relaxed the aortic tissue | comparative vasodilator activity, norepinephrine-treated tissue [1]: considerably more active than Q-pr-MDI | IC50 [1, 7]: 78.2 µM | effect on frequency-force profile/relation of the stimulated left atrium (isolated left atria; 3×10^-4 M): virtually identical to that of the butyl homolog | overall effect on mechanical and electrical behavior of atria (isolated left atria; 10^-8 to 3×10^-4 M): generally similar to those of bu-MDI | LD50 (mice): 185 mg/kg | potency and safety against calcium-induced arrhythmia versus verapamil ([3]; earlier work of applicants): more potent and safer then verapamil | concentration effective against calcium-induced arrhythmias ([3]; i.v., 10 min before CaCl2): 3.75 mg/kg | deleterious side effects ([3]; i.v., Q-bu-MDI at 0.5 mg/kg, pr-MDI and bu-MDI at 3.75 mg/kg): without deleterious side effects | Therapeutic Index (LD50/ED50) ([4]; ED50 from chloroform anoxia, LD50 i.p.): 2.7 | potency against chloroform/anoxia-induced arrhythmia versus quinidine ([4]; earlier work of applicants): as potent as quinidine | ED50 ([4]; n = 40, 10 min): 68 mg/kg | ED50 ([4]; n = 40, listed as Pr--MDI, 10 min): 68.0 mg/kg | Antiarrhythmic Potency ([4]; quinidine = 1.00, chloroform anoxia): 0.99
